Patent publication US10828315B2 (Madrigal Pharmaceuticals, Inc., priority 2013, dated 2020)
Like-named read-outs stand apart in the source and are kept apart here.

Experiments:
[1] = tested on: human breast cancer cell line BT-474; experiment: Cytotoxicity assay (CellTiter-Glo, 72 h), BT-474; format: cell-based; conditions: read-out: Cytotoxicity (IC50, nM) BT-474
Protocol: (§1) Cytotoxicity of SDC-TRAP molecules was determined in three cancer cell lines. […] 80 μL of CellTiter-Glo was added to each well, followed by room temperature incubation in the dark for 15 minutes. Cell was determined by luminescence. IC50 was calculated using XLfit™ software.

HER2 = HER2 degradation assay with BT-474 cell line (Example 12, FACS); format: cell-based, human
[2] = tested on: human urinary bladder cancer cell line SW780; experiment: Cytotoxicity assay (CellTiter-Glo, 72 h), SW780; format: cell-based; conditions: read-out: Cytotoxicity (IC50, nM) SW-780
Protocol: as §1

[3] = tested on: human urinary bladder cancer cell line RT-112; experiment: Cytotoxicity assay (CellTiter-Glo, 72 h), RT-112; format: cell-based; conditions: read-out: Cytotoxicity (IC50, nM) RT-112
Protocol: as §1

[4] = Mouse plasma stability protocol, up to 1 h (Examples 16-18)
[5] = Artificial membrane permeability assay (PAMPA)
[6] = Tissue Distribution Data for SDC-TRAP-0195
[7] = SDC-TRAP-0063 PK in male CD-1 mice (IV bolus); format: in vivo; conditions: of monitored analyte
[8] = SDC-TRAP-0063 PK in male SD rats (slow IV bolus); format: in vivo; conditions: of monitored analyte
[9] = % Remaining of parent after 1 h incubation in mouse plasma at 37° C. (10 μM)
[10] = dosed SDC-TRAP-0063 50 mpk IV bolus
[11] = dosed SDC-TRAP-0063 100 mpk IV bolus
[12] = dosed SDC-TRAP-0063 200 mpk IV bolus
[13] = dosed SDC-TRAP-0063 10 mpk slow IV bolus
[14] = dosed SDC-TRAP-0063 50 mpk slow IV bolus
[15] = dosed SDC-TRAP-0063 100 mpk slow IV bolus
[16] = dosed SDC-TRAP-0063 150 mpk slow IV bolus

CC(C)c1cc(C(=O)N2Cc3ccc(NC(=O)CCCc4nc5cc(N(CCCl)CCCl)ccc5n4C)cc3C2)c(O)cc1O [SDC-TRAP-0211, 4-(5-(bis(2-chloroethyl)amino)-1-methyl-1H-benzo[d]imidazol-2-yl)-N-(2-(2,4-dihydroxy-5-isopropylbenzoyl)isoindolin-5-yl)butanamide]
IC50 ([1]; BT-474, 72 h): 249 nM | IC50 (HER2; BT-474 cells, overnight): 0.289 µM | IC50 ([2]; SW780, 72 h): 2340 nM | IC50 ([3]; RT-112, 72 h): 110 nM

CCc1c2c(nc3ccc(O)cc13)-c1cc3c(c(=O)n1C2)COC(=O)[C@@]3(CC)OC(=O)N1CCC(CCn2ccc3cc(-n4c(O)nnc4-c4cc(C(C)C)c(O)cc4O)ccc32)CC1 [SDC-TRAP-0064, (S)-4,11-diethyl-9-hydroxy-3,14-dioxo-3,4,12,14-tetrahydro-1H-pyrano[3′,4′:6,7]indolizino[1,2-b]quinolin-4-yl 4-(2-(5-(3-(2,4-dihydroxy-5-isopropylphenyl)-5-hydroxy-4H-1,2,4-triazol-4-yl)-1H-indol-1-yl)ethyl)piperidine-1-carboxylate]
IC50 (HER2): 1.13 µM | % Remaining (1 h) [4, 9]: 91.5% | % Remaining (1 h) ([4]; mouse plasma, 37° C., 10 μM): 91.5% | % Remaining (1 h, 37° C.) ([4]; mouse plasma, 37° C.): 91.5% | Mass Retention ([5]; same protocol, second table): 48.4%

CC(C)c1cc(-c2nnc(O)n2-c2ccc3c(c2)CN(C(=O)c2ccc(CCc4c[nH]c5nc(N)[nH]c(=O)c45)cc2)C3)c(O)cc1O [SDC-TRAP-0093, 2-amino-5-(4-(5-(3-(2,4-dihydroxy-5-isopropylphenyl)-5-hydroxy-4H-1,2,4-triazol-4-yl)isoindoline-2-carbonyl)phenethyl)-3H-pyrrolo[2,3-d]pyrimidin-4(7H)-one]
IC50 ([1]; BT-474, 72 hours): 1540 nM | IC50 ([2]; SW780, 72 hours): > 10000 nM | IC50 ([3]; RT-112, 72 hours): 1290 nM

CCNC(=O)c1nnc(-c2cc(C(C)C)c(O)cc2O)n1-c1ccc(CN2CCC(C(=O)N3CCN(c4cc(C)c(OC(=O)Nc5cccc6c5CN(C5CCC(=O)NC5=O)C6=O)c(C)c4)CC3)CC2)cc1 (centres unmarked) [SDC-TRAP-0195, 4-(4-(1-(4-(3-(2,4-dihydroxy-5-isopropylphenyl)-5-(ethylcarbamoyl)-4H-1,2,4-triazol-4-yl)benzyl)piperidine-4-carbonyl)piperazin-1-yl)-2,6-dimethylphenyl (2-(2,6-dioxopiperidin-3-yl)-1-oxoisoindolin-4-yl)carbamate]
Plasma Conc. ([6]; Time (h) 0.083): 1220 µM | Tumor Conc. ([6]; Time (h) 0.083): 17.1 nmol/g of tissue | Tumor/Plasma Ratio ([6]; Time (h) 0.083): 0.0140 | Plasma Conc. ([6]; Time (h) 1): 211 µM | Tumor Conc. ([6]; Time (h) 1): 23.0 nmol/g of tissue | Tumor/Plasma Ratio ([6]; Time (h) 1): 0.109 | Plasma Conc. ([6]; Time (h) 6): 7.23 µM | Tumor Conc. ([6]; Time (h) 6): 17.1 nmol/g of tissue | Tumor/Plasma Ratio ([6]; Time (h) 6): 2.36 | Plasma Conc. ([6]; Time (h) 24): 2.03 µM | Tumor Conc. ([6]; Time (h) 24): 11.2 nmol/g of tissue | Tumor/Plasma Ratio ([6]; Time (h) 24): 5.50 | Plasma Conc. ([6]; Time (h) 48): BQL | Tumor Conc. ([6]; Time (h) 48): 12.6 nmol/g of tissue | IC50 (HER2): 0.049 µM | % Remaining (1 h) [4, 9]: 98.4% | Mass Retention ([5]; incubation 5 h, first table): 27.1%

CC(C)c1cc(-c2nnc(O)n2-c2ccc(CN3CCN(C(=O)CCCc4nc5cc(N(CCCl)CCCl)ccc5n4C)CC3)cc2)c(O)cc1O [SDC-TRAP-0069, 4-(5-(bis (2-chloroethyl)amino)-1-methyl-1H-benzo[d]imidazol-2-yl)-1-(4-(4-(3-(2,4-dihydroxy-5-isopropylphenyl)-5-hydroxy-4H-1,2,4-triazol-4-yl)benzyl)piperazin-1-yl)butan-1-one]
IC50 ([1]; BT-474, 72 h): 914 nM | IC50 (HER2; BT-474 cells, overnight): 1.23 µM | IC50 ([2]; SW780, 72 h): 1340 nM | IC50 ([3]; RT-112, 72 h): 909 nM

CCNC(=O)c1nnc(-c2cc(C(C)C)c(O)cc2O)n1-c1ccc(CN2CCC(C(=O)N3CCC(C(=O)N[C@H]4C[C@H](O[C@H]5C[C@](O)(C(=O)CO)Cc6c(O)c7c(c(O)c65)C(=O)c5c(OC)cccc5C7=O)O[C@@H](C)[C@H]4O)CC3)CC2)cc1 [SDC-TRAP-0198, 1-(1-(4-(3-(2,4-dihydroxy-5-isopropylphenyl)-5-(ethylcarbamoyl)-4H-1,2,4-triazol-4-yl)benzyl)piperidine-4-carbonyl)-N-((2S,3S,4S,6R)-3-hydroxy-2-methyl-6-(((1S,3S)-3,5, 12-trihydroxy-3-(2-hydroxyacetyl)-10-methoxy-6,11-dioxo-1,2,3,4,6,11-hexahydrotetracen-1-yl)oxy)tetrahydro-2H-pyran-4-yl)piperidine-4-carboxamide]
IC50 ([1]; BT-474, 72 hours): 786 nM | IC50 (HER2; BT-474 cells, overnight): > 10 µM | IC50 ([2]; SW780, 72 hours): > 10000 nM | IC50 ([3]; RT-112, 72 hours): 297 nM

COc1cccc2c1C(=O)c1c(O)c3c(c(O)c1C2=O)C[C@@](O)(/C(CO)=N/NC(=O)CCn1ccc2cc(-n4c(O)nnc4-c4cc(C(C)C)c(O)cc4O)ccc21)C[C@@H]3O[C@H]1C[C@H](N)[C@H](O)[C@H](C)O1 [SDC-TRAP-0219, (E)-N′-(1-((2S,4S)-4-(((2R,4S,5S,6S)-4-amino-5-hydroxy-6-methyltetrahydro-2H-pyran-2-yl)oxy)-2,5,12-trihydroxy-7-methoxy-6,11-dioxo-1,2,3,4,6,11-hexahydrotetracen-2-yl)-2-hydroxyethylidene)-3-(5-(3-(2,4-dihydroxy-5-isopropylphenyl)-5-hydroxy-4H-1,2,4-triazol-4-yl)-1H-indol-1-yl)propanehydrazide]
IC50 ([1]; BT-474, 72 hours): > 10000 nM | IC50 ([2]; SW780, 72 hours): > 10000 nM | IC50 ([3]; RT-112, 72 hours): 973 nM

CCNC(=O)c1nnc(-c2cc(C(C)C)c(O)cc2O)n1-c1ccc2c(ccn2CCC2CCN(C(=O)Oc3ccc4nc5c(c(CC)c4c3)Cn3c-5cc4c(c3=O)COC(=O)[C@]4(O)CC)CC2)c1 [SDC-TRAP-0205, (S)-4,11-diethyl-4-hydroxy-3,14-dioxo-3,4,12,14-tetrahydro-1H-pyrano[3′,4′:6,7]indolizino[1,2-b]quinolin-9-yl 4-(2-(5-(3-(2,4-dihydroxy-5-isopropylphenyl)-5-(ethylcarbamoyl)-4H-1,2,4-triazol-4-yl)-1H-indol-1-yl)ethyl)piperidine-1-carboxylate]
IC50 (HER2): 0.564 µM | % Remaining (1 h) [4, 9]: 58.4% | % Remaining (1 h, 37° C.) ([4]; mouse plasma, 37° C.): 58.4% | Mass Retention ([5]; same protocol, second table): 10.9%

CCNC(=O)c1nnc(-c2cc(C(C)C)c(O)cc2O)n1-c1ccc2c(ccn2CCC2CCN(C(=O)O[C@]3(CC)C(=O)OCc4c3cc3n(c4=O)Cc4c-3nc3ccc(O)cc3c4CC)CC2)c1 [SDC-TRAP-0208, (S)-4,11-diethyl-9-hydroxy-3,14-dioxo-3,4,12,14-tetrahydro-1H-pyrano[3′,4′: 6,7]indolizino[1,2-b]quinolin-4-yl 4-(2-(5-(3-(2,4-dihydroxy-5-isopropylphenyl)-5-(ethylcarbamoyl)-4H-1,2,4-triazol-4-yl)-1H-indol-1-yl)ethyl)piperidine-1-carboxylate]
IC50 (HER2): 0.48 µM | % Remaining (1 h) [4, 9]: 86.1% | % Remaining (1 h, 37° C.) ([4]; mouse plasma, 37° C.): 86.1% | Mass Retention ([5]; same protocol, second table): 25.0%

CCc1c2c(nc3ccc(OC(=O)N4CCC(CCn5ccc6cc(-n7c(O)nnc7-c7cc(C(C)C)c(O)cc7O)ccc65)CC4)cc13)-c1cc3c(c(=O)n1C2)COC(=O)C3(O)CC (centres unmarked) [compound 0063]
AUCinf [7, 10]: 237 µM·h | AUCt [7, 10]: 235 µM·h | CL [7, 10]: 0.240 L/h/kg | Cmax [7, 10]: 414 µM | Tmax [7, 10]: 4.98 min | Vss [7, 10]: 0.122 L/kg | Vz [7, 10]: 0.659 L/kg | t1/2 [7, 10]: 114 min | AUCinf [7, 11]: 549 µM·h | AUCt [7, 11]: 549 µM·h | CL [7, 11]: 0.207 L/h/kg | Cmax [7, 11]: 799 µM | Tmax [7, 11]: 4.98 min | Vss [7, 11]: 0.241 L/kg | Vz [7, 11]: 0.747 L/kg | t1/2 [7, 11]: 150 min | AUCinf [7, 12]: 2884 µM·h | AUCt [7, 12]: 2882 µM·h | CL [7, 12]: 0.079 L/h/kg | Cmax [7, 12]: 1620 µM | Tmax [7, 12]: 4.98 min | Vss [7, 12]: 0.173 L/kg | Vz [7, 12]: 0.307 L/kg | t1/2 [7, 12]: 162 min | AUCinf [8, 13]: 38.8 µM·h | AUCt [8, 13]: 38.8 µM·h | CL [8, 13]: 0.294 L/h/kg | Cmax [8, 13]: 102 µM | Tmax [8, 13]: 4.98 min | Vss [8, 13]: 0.0590 L/kg | Vz [8, 13]: 0.441 L/kg | t1/2 [8, 13]: 60 min | AUCinf [8, 14]: 687 µM·h | AUCt [8, 14]: 687 µM·h | CL [8, 14]: 0.0830 L/h/kg | Cmax [8, 14]: 659 µM | Tmax [8, 14]: 4.98 min | Vss [8, 14]: 0.0640 L/kg | Vz [8, 14]: 0.0924 L/kg | t1/2 [8, 14]: 48 min | AUCinf [8, 15]: 1786 µM·h | AUCt [8, 15]: 1785 µM·h | CL [8, 15]: 0.0648 L/h/kg | Cmax [8, 15]: 1210 µM | Tmax [8, 15]: 4.98 min | Vss [8, 15]: 0.0654 L/kg | Vz [8, 15]: 0.153 L/kg | t1/2 [8, 15]: 96 min | AUCinf [8, 16]: 5302 µM·h | AUCt [8, 16]: 5302 µM·h | CL [8, 16]: 0.0328 L/h/kg | Cmax [8, 16]: 1900 µM | Tmax [8, 16]: 30 min | Vss [8, 16]: 0.0663 L/kg | Vz [8, 16]: 0.0855 L/kg | t1/2 [8, 16]: 108 min
